Assay results taken from patent US4058512A, “Synthetic peptides having growth promoting activity” (AB Kabi, priority 1975, dated 1977).
Bridge positions count the residues as written; N and C are the ends. Peptide text beside a SMILES is read from it.

Tested on: human embryonic lung fibroblasts
Experiment: Growth promoting activity in human embryonic lung fibroblasts, cell counting in a counting chamber
Type: cell-based
Conditions: for Growth stimulation in %: per cent increase over basal value with 0.67% calf serum; for No. of cells × 10^6: 0.67% calf serum
Experimental: Tests of the growth promoting activity have been performed in human embryonic lung fibroblasts and the growth promoting activity is measured by cell counting in a counting chamber and expressed as per cent increase over a basal value obtained with using 0.67% calf serum.

Compound: C[C@@H](O)[C@H](NC(=O)[C@@H]1CSSC[C@H](NC(=O)[C@H](CO)NC(=O)[C@H](CCC(=O)O)NC(=O)[C@H](CCC(N)=O)NC(=O)[C@@H](N)CC(=O)O)C(=O)N[C@@H](CCCCN)C(=O)NCC(=O)N[C@@H](CCCNC(=N)N)C(=O)N1)C(=O)N[C@@H](CCC(=O)O)C(=O)NCC(=O)N[C@@H](Cc1ccccc1)C(=O)O [tridecapeptide (cyclic)] (H-DQESCKGRCTEGF-OH; disulfide 5-9)
- Growth stimulation in % (1 μg per ml medium): 14%
- No. of cells × 10^6 (1 μg tridecapeptide per ml medium): 2.35 × 10^6
- Growth stimulation in % (5 μg per ml medium): 66%
- No. of cells × 10^6 (5 μg tridecapeptide per ml medium): 3.4 × 10^6
- Growth stimulation in % (10 μg per ml medium): 60%
- No. of cells × 10^6 (10 μg tridecapeptide per ml medium): 3.3 × 10^6
- Growth stimulation in % (25 μg per ml medium): 51%
- No. of cells × 10^6 (25 μg tridecapeptide per ml medium): 3.1 × 10^6
- Growth stimulation in % (50 μg per ml medium): 31%
- No. of cells × 10^6 (50 μg tridecapeptide per ml medium): 2.7 × 10^6
- Effect on total number of cells produced (dosages higher than 10 μug. per ml. of medium): slight inhibitory effect
- Effect on total number of cells produced (dosages of from 1 to 10 μug. of polypeptide per ml. of medium): dose related increase
